Key:
[1] = target: hERG (Homo sapiens, UniProt Q12809); experiment: in vitro; conditions: pH 7.4
[2] = Protein binding in human plasma; format: in vitro ADME
Description: HY2901 was administered to rats, dogs, and cynomolgus monkeys at a dose of 3 mg/kg orally and intravenously. Plasma samples were collected from all species for pharmacokinetic analysis. […] HY2901 is 75% protein bound in rat plasma and 60% protein bound in human plasma.

[3] = target: T1, CYP 1A2 (Homo sapiens, UniProt P05177); experiment: Cytochrome P450 inhibition, human microsomal preparation: CYP 1A2; format: in vitro ADME
T1 construct: in a commercially available human microsomal preparation; purchased; host or cells: human microsomal preparation
T1 sequence (P05177 whole entry): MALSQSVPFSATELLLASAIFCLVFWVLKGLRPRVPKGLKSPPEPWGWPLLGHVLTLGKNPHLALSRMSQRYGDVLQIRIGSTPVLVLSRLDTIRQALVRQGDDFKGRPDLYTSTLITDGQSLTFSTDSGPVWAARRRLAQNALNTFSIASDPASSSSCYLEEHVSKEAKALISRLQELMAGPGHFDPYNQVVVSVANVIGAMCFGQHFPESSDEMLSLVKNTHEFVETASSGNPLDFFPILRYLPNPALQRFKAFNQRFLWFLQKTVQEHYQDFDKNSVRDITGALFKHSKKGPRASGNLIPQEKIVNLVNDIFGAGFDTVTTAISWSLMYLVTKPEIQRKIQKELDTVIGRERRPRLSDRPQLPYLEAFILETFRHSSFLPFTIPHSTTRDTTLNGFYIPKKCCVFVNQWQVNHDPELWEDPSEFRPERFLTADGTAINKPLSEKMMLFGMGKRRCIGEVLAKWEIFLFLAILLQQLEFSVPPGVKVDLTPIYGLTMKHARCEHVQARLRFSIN
Description: (§1) Cytochrome P450 inhibition was studied with HY2901 in vitro. […] In addition, the in vitro rate of metabolism in rat, dog, monkey, and human hepatocyte cultures was determined for HY2901.

[4] = Brain levels of parent drug after oral administration; conditions: rat, 3 mg/kg
[5] = tested on: human hepatocytes; experiment: In vitro metabolism in human (cryopreserved) hepatocytes; format: in vitro ADME; conditions: human hepatocyte cultures
Description: Metabolism of test articles in monkey and human cryopreserved hepatocytes is assayed as follows:
Sample is diluted with DMSO, to prepare 100 μM and 10 μM stocks. 0.1% formic acid in acetonitrile is prepared by the addition of 1 mL formic acid per 1 L acetonitrile (store RT for 3 months). 10 minute, 60 and 120 minute 96 well quenching plates are prepared with 150 μL acetonitrile+0.1% formic acid in each well. Store on ice or refrigerated.
Next, hepatocytes are thawed and 100 μL of cell suspension is placed into a microfuge tube with 100 μL 0.4% Trypan Blue solution and gently mix by inversion. A small amount of the stained cell suspension (approximately 15 μL) is placed into a clean hemacytometer with a coverslip. The hemacytometer is placed onto the stage of the microscope and the focus and power are adjusted until a single counting square fills the field. The number of cells in the four outside corner subdivided squares of the hemacytometer are counted. Viable cells are opalescent, round, and pale with a darker outline. Non-viable cells are dark, opaque blue.
198 μL of hepatocytes are transferred to relevant wells on dosing plate.
Plates are preincubated for at least 15 min. […]
as §1

[6] = target: T2, CYP 2C9 (Homo sapiens, UniProt P11712); experiment: Cytochrome P450 inhibition: CYP 2C9; format: in vitro ADME; conditions: human microsomal preparation
T2 construct: in a commercially available human microsomal preparation; purchased; host or cells: human microsomal preparation
T2 sequence (P11712 whole entry): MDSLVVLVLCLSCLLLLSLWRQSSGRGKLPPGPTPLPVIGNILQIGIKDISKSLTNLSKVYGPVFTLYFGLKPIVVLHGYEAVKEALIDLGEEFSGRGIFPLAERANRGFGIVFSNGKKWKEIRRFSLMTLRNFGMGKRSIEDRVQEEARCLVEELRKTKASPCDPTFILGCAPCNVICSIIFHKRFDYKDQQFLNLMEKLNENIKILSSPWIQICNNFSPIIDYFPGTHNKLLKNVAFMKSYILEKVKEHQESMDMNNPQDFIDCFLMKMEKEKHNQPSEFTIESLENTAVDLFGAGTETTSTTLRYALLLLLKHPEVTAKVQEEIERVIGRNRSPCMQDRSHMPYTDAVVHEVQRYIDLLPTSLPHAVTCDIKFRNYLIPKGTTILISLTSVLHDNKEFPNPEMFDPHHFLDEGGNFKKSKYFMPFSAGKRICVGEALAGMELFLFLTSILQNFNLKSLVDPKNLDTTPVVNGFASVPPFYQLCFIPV
Description: as §1

[7] = tested on: Potassium Channel, Ca2+ Act., VI; experiment: Table 12 panel: Potassium Channel, Ca2+ Act.; format: binding; conditions: 1.0E−6, average N=2
Excerpt: (§2) The percentage inhibition (average; N=2) for these receptors is shown below in Table 12.
(§3) Values in Table 12 are expressed as percentage inhibition of specific binding, and these values represent the average of replicate tubes at each of the concentrations tested.

[8] = tested on: Serotonin, Non-selective; experiment: Table 12 panel: Serotonin, Non-selective; format: binding; conditions: 1.0E−6, average N=2
Excerpt: as §2, §3

[9] = tested on: Galanin, Non-Selective; experiment: Table 12 panel: Galanin; format: binding; conditions: 1.0E−6, average N=2
Excerpt: as §2, §3

[10] = tested on: Glutamate, NMDA Agonist Site; experiment: Table 12 panel: Glutamate, NMDA Agonist; format: binding; conditions: 1.0E−6, average N=2
Excerpt: as §2, §3

[11] = tested on: GABA A, Agonist Site; experiment: Table 12 panel: GABA A, Agonist Site; format: binding; conditions: 1.0E−6, average N=2
Excerpt: as §2, §3

[12] = target: Glutamate, NMDA, Glycine (Stry-insens Site) (Homo sapiens, UniProt Q05586); experiment: Table 12 panel: Glutamate, NMDA, Glycine; conditions: 1.0E−6, average N=2, read-out: percentage inhibition of specific binding
Excerpt: as §2, §3

[13] = tested on: Muscarinic, Non-selective, Central; experiment: Table 12 panel: Muscarinic, Central; format: binding; conditions: 1.0E−6, average N=2
Excerpt: as §2, §3

[14] = target: Oxytocin (Homo sapiens, UniProt P30559); experiment: Table 12 panel: Oxytocin; conditions: 1.0E−6, average N=2, read-out: percentage inhibition of specific binding
Chain of Oxytocin (P30559 whole entry): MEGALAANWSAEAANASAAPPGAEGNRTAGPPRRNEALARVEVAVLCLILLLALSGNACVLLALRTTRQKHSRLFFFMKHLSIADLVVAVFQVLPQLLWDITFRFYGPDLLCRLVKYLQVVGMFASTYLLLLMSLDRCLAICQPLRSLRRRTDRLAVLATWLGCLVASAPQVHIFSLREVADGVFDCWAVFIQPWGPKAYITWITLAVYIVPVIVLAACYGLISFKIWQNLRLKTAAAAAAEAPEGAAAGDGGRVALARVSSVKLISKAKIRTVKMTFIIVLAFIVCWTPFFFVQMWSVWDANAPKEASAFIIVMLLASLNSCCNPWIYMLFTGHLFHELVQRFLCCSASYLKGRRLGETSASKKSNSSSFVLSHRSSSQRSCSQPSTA
Excerpt: as §2, §3

[15] = target: Neurokinin, NK3 (NKB) (Homo sapiens, UniProt P29371); experiment: Table 12 panel: NK3; conditions: 1.0E−6, average N=2, read-out: percentage inhibition of specific binding
Chain of Neurokinin, NK3 (NKB) (P29371 whole entry): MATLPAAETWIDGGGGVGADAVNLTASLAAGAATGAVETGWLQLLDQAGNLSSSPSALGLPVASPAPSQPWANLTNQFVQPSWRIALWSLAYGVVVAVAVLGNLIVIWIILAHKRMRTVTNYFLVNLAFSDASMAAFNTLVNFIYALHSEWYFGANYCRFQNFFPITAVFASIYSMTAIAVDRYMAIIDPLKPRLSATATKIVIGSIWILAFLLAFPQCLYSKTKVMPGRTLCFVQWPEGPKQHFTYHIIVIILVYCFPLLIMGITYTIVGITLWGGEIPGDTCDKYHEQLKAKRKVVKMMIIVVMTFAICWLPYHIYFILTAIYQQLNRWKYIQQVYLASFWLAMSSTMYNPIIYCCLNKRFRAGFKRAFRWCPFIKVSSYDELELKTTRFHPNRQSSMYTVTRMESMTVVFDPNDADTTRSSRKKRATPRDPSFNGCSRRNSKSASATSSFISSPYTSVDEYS
Excerpt: as §2, §3

[16] = tested on: Glutamic Acid Decarboxylase; experiment: Table 12 panel: Glutamic Acid Decarboxylase; format: biochemical; conditions: 1.0E−6, average N=2
Excerpt: as §2, §3

[17] = tested on: Melatonin, Non-selective; experiment: Table 12 panel: Melatonin; format: binding; conditions: 1.0E−6, average N=2
Excerpt: as §2, §3

[18] = tested on: Adenosine, Non-selective; experiment: Table 12 panel: Adenosine, Non-selective; format: binding; conditions: 1.0E−6, average N=2
Excerpt: as §2, §3

[19] = tested on: Muscarinic, Non-selective, Peripheral; experiment: Table 12 panel: Muscarinic, Peripheral; format: binding; conditions: 1.0E−6, average N=2
Excerpt: as §2, §3

[20] = tested on: T3, Adrenergic, Alpha 2, Non-selective; experiment: Table 12 panel: Adrenergic, Alpha 2; format: binding; conditions: Adrenergic, Alpha 2; 1.0E−6; average N=2
T3 construct: other: Adrenergic, Alpha 2; 1.0E−6; average N=2

[21] = target: Leukotriene, LTD4 (Homo sapiens, UniProt Q9Y271); experiment: Table 12 panel: Leukotriene, LTD4; conditions: 1.0E−6, average N=2, read-out: percentage inhibition of specific binding
Chain of Leukotriene, LTD4 (Q9Y271 whole entry): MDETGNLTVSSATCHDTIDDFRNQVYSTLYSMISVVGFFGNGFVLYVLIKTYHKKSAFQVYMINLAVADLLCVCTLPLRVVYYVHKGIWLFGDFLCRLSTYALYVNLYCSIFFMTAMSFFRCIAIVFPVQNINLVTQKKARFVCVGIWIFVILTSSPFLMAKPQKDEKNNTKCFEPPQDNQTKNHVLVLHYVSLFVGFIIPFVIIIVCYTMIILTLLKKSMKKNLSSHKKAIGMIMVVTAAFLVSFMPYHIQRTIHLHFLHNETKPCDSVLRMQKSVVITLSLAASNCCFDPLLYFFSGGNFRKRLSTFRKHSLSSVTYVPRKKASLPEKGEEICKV
Excerpt: as §2, §3

Chain of hERG (Q12809 whole entry): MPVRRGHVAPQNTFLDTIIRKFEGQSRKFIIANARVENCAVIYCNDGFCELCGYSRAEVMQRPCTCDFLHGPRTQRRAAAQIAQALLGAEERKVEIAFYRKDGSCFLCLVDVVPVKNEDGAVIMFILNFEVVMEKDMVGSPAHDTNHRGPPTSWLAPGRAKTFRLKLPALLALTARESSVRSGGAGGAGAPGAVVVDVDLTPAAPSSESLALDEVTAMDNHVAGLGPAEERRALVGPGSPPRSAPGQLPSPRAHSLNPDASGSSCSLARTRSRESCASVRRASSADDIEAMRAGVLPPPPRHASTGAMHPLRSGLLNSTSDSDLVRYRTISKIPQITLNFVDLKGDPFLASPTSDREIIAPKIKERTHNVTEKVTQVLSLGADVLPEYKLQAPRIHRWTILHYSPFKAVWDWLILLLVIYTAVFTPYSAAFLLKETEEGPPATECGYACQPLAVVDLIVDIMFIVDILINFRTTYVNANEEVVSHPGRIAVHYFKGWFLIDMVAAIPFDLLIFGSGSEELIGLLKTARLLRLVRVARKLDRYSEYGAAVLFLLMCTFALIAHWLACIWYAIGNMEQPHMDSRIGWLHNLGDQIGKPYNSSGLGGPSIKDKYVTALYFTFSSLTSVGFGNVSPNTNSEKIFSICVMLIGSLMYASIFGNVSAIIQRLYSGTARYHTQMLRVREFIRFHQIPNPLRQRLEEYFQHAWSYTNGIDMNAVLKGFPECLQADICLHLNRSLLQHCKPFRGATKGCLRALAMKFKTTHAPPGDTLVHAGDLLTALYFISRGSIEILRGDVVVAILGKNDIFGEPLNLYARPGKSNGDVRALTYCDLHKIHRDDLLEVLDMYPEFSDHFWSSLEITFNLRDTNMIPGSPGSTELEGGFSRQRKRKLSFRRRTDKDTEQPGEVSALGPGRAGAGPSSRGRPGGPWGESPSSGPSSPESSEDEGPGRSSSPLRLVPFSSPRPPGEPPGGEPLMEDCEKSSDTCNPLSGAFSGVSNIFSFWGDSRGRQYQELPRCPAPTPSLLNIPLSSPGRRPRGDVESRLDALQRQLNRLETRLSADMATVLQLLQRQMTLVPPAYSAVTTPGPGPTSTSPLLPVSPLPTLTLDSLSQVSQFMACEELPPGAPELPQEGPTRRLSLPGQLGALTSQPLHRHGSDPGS

## CC(C)(CN1CCC(=C2c3ccc(F)cc3COc3ccccc32)CC1)C(=O)O [Compound 49a]
[1]
  IC50: 93 µM
  inhibition at 0.01 µM: 10%
[2]
  protein bound: 60%
[3]
  inhibition of CYP 1A2 activity: did not inhibit
[4]
  Kp: 1
[5]
  in vitro metabolism: little metabolism was observed
[6]
  inhibition of CYP 2C9 activity: did not inhibit

## CC(CC(=O)O)N1CCC(=C2c3ccc(F)cc3COc3ccccc32)CC1 (stereo not shown) [Compound 37]
[7]
  percentage inhibition of specific binding: −12.71% ^
[8]
  percentage inhibition of specific binding: 21.45%
[9]
  percentage inhibition of specific binding: −5.07%
[10]
  percentage inhibition of specific binding: −5.56%
[11]
  percentage inhibition of specific binding: 20.18%
[12]
  inhibition at 1 µM: -12.5%
[13]
  percentage inhibition of specific binding: 12.84%
[14]
  inhibition at 1 µM: -5.82%
[15]
  inhibition at 1 µM: -0.23%
[16]
  percentage inhibition: −4.76%
[17]
  percentage inhibition of specific binding: 11.29%
[18]
  percentage inhibition of specific binding: 6.49%
[19]
  percentage inhibition of specific binding: 5.37%
[20]
  percentage inhibition of specific binding: −3.79%
[21]
  inhibition at 1 µM: -20.1%

From patent US7326721B2 (Hypnion, Inc., priority 2003, dated 2008)
